Laboratory results from patent US8680137B2, “Agents and methods for treating ischemic and other diseases” (Nono Inc., priority 2009, dated 2014).
Structures can show the parent of a compound that is named as a salt. Where two headings read alike, the source gives them in different places.

Assays:
[1] = target: murine TRPM7 (Mus musculus, UniProt Q923J1); test: TRPM7-mediated cell death screen, Tet-induced Flag-murine TRPM7 HEK293 Trex cells in Mg2+-deficient HBSS, PI fluorescence
Method: In the present example, human embryonic kidney (HEK293 Trex) cells were stably transfected with a tetracycline inducible Flag-tagged TRPM7 construct.
This cell death can be measured, and the impact of a candidate TRPM7 modulator on this cell death can be measured. […] Cell death can also be measured by fluorescent measurements of propidium iodide and dihydrorhodamine.
Tet-inducible Flag-murine TRPM7/pcDNA4-TO HEK293 Trex cells are cultured in: MEM (Invitrogen) supplemented with 10% fetal bovine serum, 20 mM GlutaMAX-1, 100 units/ml penicillin G sodium, 100 units/ml streptomycin sulfate, 0.25 ug/ml amphotericin B, 5 ug/ml blasticidin, 0.4 mg/ml zeocin. (All reagent were obtained from Invitrogen)
Stably transfected Flag-murine TRPM7/pcDNA4-TO HEK293 Trex cells are thawed from frozen stock kept in liquid nitrogen, and cultured in culture medium for 5 days in 100 mm dishes (Costa). […] Cells used in the present experiments are kept to three passages or less. The cells are maintained at 37° C. with 5% CO2 in a humidified incubator. All culture plates and multi-well plates (Costa) are coated with poly-D-lysine. The coating with poly-D-lysine is performed using 0.1 mg/ml poly-D-lysine (P1045 Sigma) for 12 h at 37C, followed by four washes with sterilized D-PBS (Invitrogen) without MgCl2 and CaCl2.).
When 384 well plates are used, Cells are seeded at 1.3−1.5×10^4 cells/well. When 96 well plates are used, cells are seeded at 4−5×10^4 Cells/well. After 24 h TRPM7 expression is induced by adding tetracycline (Tet; 1 ug/ml) (Invitrogen) for 24 h, followed by wash with Mg deficient HBSS.
The test compounds were plated in 96 or 384 well formats, and initially used at a concentration of: 4 μM for compounds of the LOPAC library and 5 μM for each of the Prestwick and Maybridge libraries.
Cell death in the presence or absence of a test compound and/or under conditions of TRPM7 activation was determined by fluorescence measurements of PI (5-50 μg/ml).
In brief, B scores are a relative potency score based on the raw sample PI fluorescence value. They are the ratio of an adjusted raw PI fluorescence value in the numerator to a measure of variability in the denominator.
In another approach, used manually to validate the results of the HTS method, a multiwell plate fluorescence scanner (Fluorskan Ascent; Thermo Scientific) was used. The fraction of dead cells in each culture was calculated as: fraction DEAD=(Ft−Fo)/Fmax Where Ft=PI fluorescence of the sample at time t, Fo=initial PI fluorescence and Fmax=background subtracted PI fluorescence the same cultures after exposure to 100 μM triton-X. An alternative to this formula is a Control-based formula wherein the fraction dead=[Ft−F(−)t]/[F(+)t−F(−)t] where Ft=PI fluorescence of the sample at time t, F(−)t is the PI fluorescence of the negative control sample at time t, F(+)t is the PI fluorescence of the positive control sample at time t.
Screening was carried out in Tet-induced Flag-murine TRPM7/pcDNA4-TO HEK293 Trex cells.

[2] = target: TRPM7 (Homo sapiens, UniProt Q96QT4); details: Nadler et al., Jiang et al.; read-out: IC50 for inhibition of TRPM7; cited from earlier work
TRPM7, sequence (Q96QT4 whole entry): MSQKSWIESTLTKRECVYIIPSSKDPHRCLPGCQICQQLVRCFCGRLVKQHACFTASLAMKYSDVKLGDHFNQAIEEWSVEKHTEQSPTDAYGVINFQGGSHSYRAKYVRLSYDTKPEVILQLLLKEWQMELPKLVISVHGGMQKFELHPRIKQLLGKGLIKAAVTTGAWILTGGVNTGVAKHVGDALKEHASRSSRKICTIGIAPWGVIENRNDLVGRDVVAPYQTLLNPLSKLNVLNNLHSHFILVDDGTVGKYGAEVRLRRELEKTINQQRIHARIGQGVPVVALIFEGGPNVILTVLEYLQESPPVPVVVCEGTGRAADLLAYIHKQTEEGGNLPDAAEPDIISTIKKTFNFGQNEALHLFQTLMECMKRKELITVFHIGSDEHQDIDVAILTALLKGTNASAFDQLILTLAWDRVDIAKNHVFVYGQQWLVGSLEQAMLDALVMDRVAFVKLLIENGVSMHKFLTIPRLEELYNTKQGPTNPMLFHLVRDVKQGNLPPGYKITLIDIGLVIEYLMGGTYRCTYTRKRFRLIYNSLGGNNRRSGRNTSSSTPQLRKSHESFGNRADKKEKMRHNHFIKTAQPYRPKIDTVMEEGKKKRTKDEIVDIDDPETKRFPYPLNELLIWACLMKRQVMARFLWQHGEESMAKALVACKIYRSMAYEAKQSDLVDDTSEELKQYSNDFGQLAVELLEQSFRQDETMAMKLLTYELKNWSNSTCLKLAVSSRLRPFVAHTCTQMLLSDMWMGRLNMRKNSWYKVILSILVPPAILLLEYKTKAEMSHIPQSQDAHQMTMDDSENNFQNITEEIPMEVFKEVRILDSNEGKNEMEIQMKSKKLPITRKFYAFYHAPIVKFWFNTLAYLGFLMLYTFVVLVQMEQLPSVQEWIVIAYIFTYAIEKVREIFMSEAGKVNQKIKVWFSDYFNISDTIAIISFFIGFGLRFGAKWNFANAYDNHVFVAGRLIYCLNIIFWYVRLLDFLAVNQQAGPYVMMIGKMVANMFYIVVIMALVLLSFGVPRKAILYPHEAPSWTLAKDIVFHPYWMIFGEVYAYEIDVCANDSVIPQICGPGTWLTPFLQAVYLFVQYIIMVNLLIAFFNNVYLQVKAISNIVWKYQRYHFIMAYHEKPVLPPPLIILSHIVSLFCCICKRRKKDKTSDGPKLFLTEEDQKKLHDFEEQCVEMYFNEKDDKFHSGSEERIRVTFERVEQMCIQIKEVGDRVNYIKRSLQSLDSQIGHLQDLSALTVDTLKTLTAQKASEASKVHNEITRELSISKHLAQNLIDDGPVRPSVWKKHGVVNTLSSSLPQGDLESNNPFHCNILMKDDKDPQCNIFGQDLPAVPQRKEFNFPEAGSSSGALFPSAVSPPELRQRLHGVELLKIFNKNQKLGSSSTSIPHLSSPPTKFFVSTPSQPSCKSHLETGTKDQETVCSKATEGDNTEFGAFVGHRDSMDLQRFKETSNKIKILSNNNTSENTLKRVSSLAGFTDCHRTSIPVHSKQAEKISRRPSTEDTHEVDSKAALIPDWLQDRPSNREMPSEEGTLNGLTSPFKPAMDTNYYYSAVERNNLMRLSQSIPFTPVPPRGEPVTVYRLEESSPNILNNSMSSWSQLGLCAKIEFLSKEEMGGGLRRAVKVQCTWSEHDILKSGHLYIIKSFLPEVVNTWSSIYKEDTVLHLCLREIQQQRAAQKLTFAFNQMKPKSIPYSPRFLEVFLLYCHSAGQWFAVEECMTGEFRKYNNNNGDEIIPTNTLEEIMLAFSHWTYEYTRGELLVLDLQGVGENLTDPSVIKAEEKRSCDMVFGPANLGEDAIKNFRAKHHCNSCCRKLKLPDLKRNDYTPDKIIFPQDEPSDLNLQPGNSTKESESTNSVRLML

[3] = test system: H9c2 cells; test: OGD-induced cell death in H9c2 cardiomyocytes, PI uptake; assay type: cell-based, rat; details: 6 hr anoxia + 2 hr recovery, gadolinium in buffer
Method: The rat cardiomyoblast cell line H9c2 was obtained from the American Type Culture Collection (CRL-1446) and cultured in Dulbecco's Modified Eagle Medium supplemented with 10% (v/v) heat-inactivated fetal bovine serum and 1% antibiotic-antimycotic. Cells were grown in an atmosphere of […]/5% CO2 in a humidified incubator.
H9c2 cells were made anoxic by replacing the medium with de-oxygenated Ischemic buffer (in mM: 1.13 CaCl2, 5 KCl, 0.3 KH2PO4, 0.5 MgCl2, 0.4 MgSO4, 128 NaCl, 10 HEPES) and by transferring them to an anaerobic chamber (5% CO2, 10% H2, 85% N2) for 6 hrs or 16 hrs at 37° C. OGD was terminated by washing the cells with oxygenated glucose-containing Control buffer (in mM: 1.13 CaCl2, 5 KCl, 0.3 KH2PO4, 0.5 MgCl2, 0.4 MgSO4, 128 NaCl, 10 HEPES 10 Glucose). Cultures were maintained for another 2 hrs at 37° C. in a humidified 5% CO2 atmosphere. Normoxic cells were maintained in Control buffer for the duration of the experiment.
Cell death was determined by fluorescence measurements of PI (5 μg/ml) using a multiwell plate fluorescence scanner. The fraction of dead cells in each culture was calculated as: fraction dead=(Ft−F0)/Fmax where Ft=PI fluorescence at 2 hrs post-OGD, F0=initial PI fluorescence immediately after the OGD treatment, and Fmax=PI fluorescence of the same cultures following 20 mins incubation in 1% TritonX-100.
H9c2 cells were cultured and subjected to OGD as described supra. FIG. 71 panels A and B show the results of exposure to M21 or M5 for 24 hours following 6 hours of OGD. FIG. 71 panels C and D show the results of H9c2cells were treated with either 1 mM Mg^2+, 5 μM M6, M11 (acute treatment) during the anoxic and recovery periods, or 1 μM nifedipine. Results are presented as mean±SEM (n=4).

[4] = LOPAC (4 μM) and Prestwick (5 μM) hits
[5] = Prestwick library, initial concentration 5 μM, HTS PI fluorescence
[6] = Prestwick library, manual replication
[7] = LOPAC library, initial concentration 4 μM, HTS PI fluorescence
[8] = LOPAC library, manual replication
[9] = Prestwick library, 39 nM to 20 μM

murine TRPM7, sequence (Q923J1 whole entry): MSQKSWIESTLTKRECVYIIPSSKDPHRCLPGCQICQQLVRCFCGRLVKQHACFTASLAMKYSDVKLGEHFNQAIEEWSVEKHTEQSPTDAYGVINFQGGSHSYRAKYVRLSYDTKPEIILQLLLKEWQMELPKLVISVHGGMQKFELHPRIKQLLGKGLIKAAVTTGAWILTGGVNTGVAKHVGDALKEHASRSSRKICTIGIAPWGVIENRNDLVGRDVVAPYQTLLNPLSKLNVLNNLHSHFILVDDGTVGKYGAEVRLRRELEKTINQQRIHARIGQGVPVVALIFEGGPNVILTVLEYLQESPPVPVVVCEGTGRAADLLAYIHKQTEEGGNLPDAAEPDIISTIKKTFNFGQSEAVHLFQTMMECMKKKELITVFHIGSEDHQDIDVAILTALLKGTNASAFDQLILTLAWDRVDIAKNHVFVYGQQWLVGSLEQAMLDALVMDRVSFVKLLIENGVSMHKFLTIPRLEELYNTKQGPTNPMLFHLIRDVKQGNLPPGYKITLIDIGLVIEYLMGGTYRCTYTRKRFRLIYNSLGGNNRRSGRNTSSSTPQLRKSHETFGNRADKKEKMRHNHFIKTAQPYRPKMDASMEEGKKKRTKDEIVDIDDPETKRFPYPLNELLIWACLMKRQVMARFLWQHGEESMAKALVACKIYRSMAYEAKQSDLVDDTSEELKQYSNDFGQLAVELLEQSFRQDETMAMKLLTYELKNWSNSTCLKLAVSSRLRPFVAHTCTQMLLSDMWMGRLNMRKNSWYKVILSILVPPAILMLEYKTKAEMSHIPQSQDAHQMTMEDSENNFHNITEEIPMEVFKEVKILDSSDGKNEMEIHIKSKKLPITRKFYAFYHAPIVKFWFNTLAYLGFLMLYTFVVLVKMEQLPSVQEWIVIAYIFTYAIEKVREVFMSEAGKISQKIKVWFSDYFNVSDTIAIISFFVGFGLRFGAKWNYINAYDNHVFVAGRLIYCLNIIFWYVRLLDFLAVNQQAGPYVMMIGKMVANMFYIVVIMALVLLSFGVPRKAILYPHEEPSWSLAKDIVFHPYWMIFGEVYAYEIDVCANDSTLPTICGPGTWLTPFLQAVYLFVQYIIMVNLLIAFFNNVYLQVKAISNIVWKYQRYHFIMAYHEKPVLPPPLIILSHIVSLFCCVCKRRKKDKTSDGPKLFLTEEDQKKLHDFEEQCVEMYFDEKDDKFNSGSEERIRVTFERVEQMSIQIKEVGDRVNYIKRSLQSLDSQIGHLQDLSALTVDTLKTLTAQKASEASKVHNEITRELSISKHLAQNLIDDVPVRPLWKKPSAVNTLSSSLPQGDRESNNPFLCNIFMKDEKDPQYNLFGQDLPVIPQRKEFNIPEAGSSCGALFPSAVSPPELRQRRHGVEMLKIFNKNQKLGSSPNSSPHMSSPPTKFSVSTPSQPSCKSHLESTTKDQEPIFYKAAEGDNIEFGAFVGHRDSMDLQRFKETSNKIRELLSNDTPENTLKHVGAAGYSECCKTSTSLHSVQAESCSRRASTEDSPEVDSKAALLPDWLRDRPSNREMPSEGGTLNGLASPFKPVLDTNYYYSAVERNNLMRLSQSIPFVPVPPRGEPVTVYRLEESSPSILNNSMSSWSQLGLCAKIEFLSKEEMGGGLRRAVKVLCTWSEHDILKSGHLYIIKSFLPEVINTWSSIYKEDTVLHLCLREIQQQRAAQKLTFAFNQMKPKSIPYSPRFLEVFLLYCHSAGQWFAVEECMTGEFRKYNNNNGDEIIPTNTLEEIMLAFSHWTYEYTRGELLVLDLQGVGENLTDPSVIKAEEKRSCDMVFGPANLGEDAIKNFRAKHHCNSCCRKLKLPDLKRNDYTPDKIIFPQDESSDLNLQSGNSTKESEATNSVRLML

In the case of CC[C@@H](C(=O)[C@@H](C)[C@@H](O)[C@H](C)CCc1ccc(C)c(O)c1C(=O)O)[C@H]1O[C@](CC)([C@H]2CC[C@](O)(CC)[C@H](C)O2)C[C@@H]1C [Lasalocid sodium salt], the “found to inhibit TRPM7-mediated cell injury” value [1, 4] is reported as “inhibit TRPM7-mediated cell injury”, the “B Score” value [1, 5] is reported as −5.54 and the “Verification Ratio” value [1, 6] is reported as 0.6891.

In the case of COc1cccc(OC)c1OCCNCC1CSc2ccccc2O1 (centres unmarked) [Benoxathian hydrochloride], the “found to inhibit TRPM7-mediated cell injury” value [1, 4] is reported as “inhibit TRPM7-mediated cell injury”, the Dose-Response ([1]; LOPAC library, 39 nM to 20 μM) is reported as “Yes” and the “B Score” value [1, 7] is reported as −10.32. The “Verification Ratio” value [1, 8] was 0.359.

For COc1cc2c(cc1OC)-c1c/c(=N\c3c(C)cc(C)cc3C)n(C)c(=O)n1CC2 [Trequinsin hydrochloride], the “found to inhibit TRPM7-mediated cell injury” value [1, 4] was “inhibit TRPM7-mediated cell injury”, the Dose-Response ([1]; LOPAC library, 39 nM to 20 μM) was “Yes” and the “B Score” value [1, 7] was −8.81. For the same molecule, the “Verification Ratio” value [1, 8] was 0.2534.

For Cc1cc(C2CCCCC2)n(O)c(=O)c1.NCCO [Ciclopirox ethanolamine], the “found to inhibit TRPM7-mediated cell injury” value [1, 4] was “inhibit TRPM7-mediated cell injury”, the Dose-Response [1, 9] was “Yes” and the “B Score” value [1, 5] was −5.075. The “Verification Ratio” value [1, 6] was 0.4227.

In the case of CCN(CC)CCCC(C)Nc1c2ccc(Cl)cc2nc2ccc(OC)cc12 (centres unmarked) [Quinacrine dihydrochloride], the “found to inhibit TRPM7-mediated cell injury” value [1, 4] is reported as “inhibit TRPM7-mediated cell injury”, the Dose-Response ([1]; LOPAC library, 39 nM to 20 μM) is reported as “Yes” and the “B Score” value [1, 7] is reported as −5.516. For the same molecule, the “Verification Ratio” value [1, 8] was 0.8254.

With O=C1c2c(O)ccc(O)c2C(=O)c2c(NCCNCCO)ccc(NCCNCCO)c21 [Mitoxantrone] the “found to inhibit TRPM7-mediated cell injury” value [1, 4] was “inhibit TRPM7-mediated cell injury”, the Dose-Response ([1]; LOPAC library, 39 nM to 20 μM) was “Yes” and the “B Score” value [1, 7] was −7.587. For the same molecule, the “Verification Ratio” value [1, 8] was 0.25.

In the case of CCn1cnc2c(Nc3cccc(Cl)c3)nc(N[C@@H]3CCCC[C@@H]3N)nc21.Cl [CGP-74514A hydrochloride], the “found to inhibit TRPM7-mediated cell injury” value [1, 4] is reported as “inhibit TRPM7-mediated cell injury”, the Dose-Response ([1]; LOPAC library, 39 nM to 20 μM) is reported as “Yes” and the “B Score” value [1, 7] is reported as −7.96. For the same molecule, the “Verification Ratio” value [1, 8] was 0.6543.

With COc1ccccc1N1CCN(CC(O)COc2cccc3ccccc23)CC1 (centres unmarked) [Naftopidil dihydrochloride] the “found to inhibit TRPM7-mediated cell injury” value [1, 4] was “inhibit TRPM7-mediated cell injury”, the Dose-Response ([1]; LOPAC library, 39 nM to 20 μM) was “Yes” and the “B Score” value [1, 7] was −7.535. For the same molecule, the “Verification Ratio” value [1, 8] was 0.2231, the “B Score” value [1, 5] was −8.736 and the “Verification Ratio” value [1, 6] was 0.1346.

For C[C@@]12C(=O)OC(=O)[C@]1(C)[C@H]1CC[C@@H]2O1 [Cantharidin], the “found to inhibit TRPM7-mediated cell injury” value [1, 4] was “inhibit TRPM7-mediated cell injury”, the “B Score” value [1, 7] was −10.178 and the “Verification Ratio” value [1, 8] was 0.7724. The “B Score” value [1, 5] was −9.671 and the “Verification Ratio” value [1, 6] was 0.3746.

For COc1ccc(C[C@H]2NC[C@H](O)[C@H]2OC(C)=O)cc1 [Anisomycin], the “found to inhibit TRPM7-mediated cell injury” value [1, 4] was “inhibit TRPM7-mediated cell injury”, the Dose-Response [1, 9] was “Yes” and the “B Score” value [1, 5] was −6.683. The “Verification Ratio” value [1, 6] was 0.4265.

With C[C@H]1O[C@@H](O[C@H]2[C@@H](O)C[C@H](O[C@H]3[C@@H](O)C[C@H](O[C@H]4CC[C@@]5(C)[C@H](CC[C@@H]6[C@@H]5C[C@@H](O)[C@]5(C)[C@@H](C7=CC(=O)OC7)CC[C@]65O)C4)O[C@@H]3C)O[C@@H]2C)C[C@H](O)[C@@H]1O [Digoxin] the “B Score” value [1] was −5.938, the Dose-Response [1] was “Yes” and the “Verification Ratio” value [1] was 0.7248. The “found to inhibit TRPM7-mediated cell injury” value [1] was “inhibit TRPM7-mediated cell injury”.

For [Mg+2] [Mg^2+], the IC50 [2] is listed as about 600 µM.

For COc1ccc(C[C@H](N)C(=O)N[C@H]2[C@@H](O)[C@H](n3cnc4c(N(C)C)ncnc43)O[C@@H]2CO)cc1 [Puromycin dihydrochloride], the “found to inhibit TRPM7-mediated cell injury” value [1, 4] was “inhibit TRPM7-mediated cell injury”, the Dose-Response [1, 9] was “Yes” and the “B Score” value [1, 5] was −5.573. The “Verification Ratio” value [1, 6] was 0.5905.

For COc1cccc2c1C(=O)c1c(O)c3c(c(O)c1C2=O)C[C@@](O)(C(=O)CO)C[C@@H]3O[C@H]1C[C@H](N)[C@H](O)[C@H](C)O1 [Doxorubicin hydrochloride], the “found to inhibit TRPM7-mediated cell injury” value [1, 4] was “inhibit TRPM7-mediated cell injury”, the Dose-Response [1, 9] was “Yes” and the “B Score” value [1, 5] was −9.315. The “Verification Ratio” value [1, 6] was 0.4588.

For COc1cc2c(c(OC)c1OC)-c1ccc(OC)c(=O)cc1[C@@H](NC(C)=O)CC2 [Colchicine], the “B Score” value [1] was −7.343, the “Verification Ratio” value [1] was 0.6723 and the “found to inhibit TRPM7-mediated cell injury” value [1] was “inhibit TRPM7-mediated cell injury”.

With COC(=O)C1=C(C)NC(C)=C(C(=O)OCCN(C)Cc2ccccc2)C1c1cccc([N+](=O)[O-])c1 (centres unmarked) [Nicardipine hydrochloride] the “found to inhibit TRPM7-mediated cell injury” value [1, 4] was “inhibit TRPM7-mediated cell injury”, the Dose-Response [1, 9] was “Yes” and the “B Score” value [1, 5] was −7.543. For the same molecule, the “Verification Ratio” value [1, 6] was 0.6651.

For Ic1ccccc1CNC1C2CCN(CC2)C1C(c1ccccc1)c1ccccc1.O=C(O)C(=O)O [L-703,606 oxalate], the “found to inhibit TRPM7-mediated cell injury” value [1, 4] was “inhibit TRPM7-mediated cell injury”, the Dose-Response ([1]; LOPAC library, 39 nM to 20 μM) was “Yes” and the “B Score” value [1, 7] was −8.636. For the same molecule, the “Verification Ratio” value [1, 8] was 0.373.

For CC[C@H]1CN2CCc3cc(OC)c(OC)cc3[C@@H]2C[C@@H]1C[C@H]1NCCc2cc(O)c(OC)cc21.Cl.Cl.O.O.O.O.O.O.O [Cephaeline dihydrochloride heptahydrate], the “found to inhibit TRPM7-mediated cell injury” value [1, 4] was “inhibit TRPM7-mediated cell injury”, the “B Score” value [1, 5] was −7.927 and the “Verification Ratio” value [1, 6] was 0.2271.

In the case of C[n+]1cc2c3c(ccc2c2ccc4cc5c(cc4c21)OCO5)OCO3 [Sanguinarine chloride], the “found to inhibit TRPM7-mediated cell injury” value [1, 4] is reported as “inhibit TRPM7-mediated cell injury”, the “B Score” value [1, 7] is reported as −6.158 and the “Verification Ratio” value [1, 8] is reported as 0.8029.

In the case of O=C(O)c1cc(O)cc(C(=O)O)n1 [Chelidamic acid], the “found to inhibit TRPM7-mediated cell injury” value [1, 4] is reported as “inhibit TRPM7-mediated cell injury”, the Dose-Response ([1]; LOPAC library, 39 nM to 20 μM) is reported as “Yes” and the “B Score” value [1, 7] is reported as −12.502. For the same molecule, the “Verification Ratio” value [1, 8] was 1.287.

For CCOc1ccc(Cc2nccc3cc(OCC)c(OCC)cc23)cc1OCC [Ethaverine hydrochloride], the “found to inhibit TRPM7-mediated cell injury” value [1, 4] was “inhibit TRPM7-mediated cell injury”, the Dose-Response [1, 9] was “Yes” and the “B Score” value [1, 5] was −9.238. The “Verification Ratio” value [1, 6] was 0.08142.

In the case of COc1cc(/C=C/C(=O)N2CCC=CC2=O)cc(OC)c1OC [Piperlongumine], the “found to inhibit TRPM7-mediated cell injury” value [1, 4] is reported as “inhibit TRPM7-mediated cell injury”, the Dose-Response [1, 9] is reported as “Yes” and the “B Score” value [1, 5] is reported as −9.599. The “Verification Ratio” value [1, 6] was 0.7354.

In the case of COc1cccc2c1C(=O)c1c(O)c3c(c(O)c1C2=O)C[C@@](O)(C(C)=O)C[C@@H]3O[C@H]1C[C@H](N)[C@H](O)[C@H](C)O1 [Daunorubicin hydrochloride], the “found to inhibit TRPM7-mediated cell injury” value [1, 4] is reported as “inhibit TRPM7-mediated cell injury”, the Dose-Response [1, 9] is reported as “Yes” and the “B Score” value [1, 5] is reported as −5.68. For the same molecule, the “Verification Ratio” value [1, 6] was 0.4598.

In the case of [Gd] [gadolinium, reference compound], the OGD-mediated cell death [3] is reported as “reduced”.
